From article PMC7539012, “Hyperphosphorylated tau aggregation and cytotoxicity modulators screen identified prescription drugs linked to Alzheimer's disease and cognitive functions” (Scientific Reports, 2020) come the findings set out here.

Structures can show the parent of a compound that is named as a salt.

The test system of the first experiment is T1, 1N4R p-tau.
T1 construct: made in house; host or cells: E. coli (PIMAX system)
Briefly: p-tau aggregation modulator screen of 1280-compound library (ThS fluorescence net change over 16 h).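 As to ThS net change: 30 µM compound with 6 µM p-tau over 16 h.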 On the set-up: key to PTAI>3SD: *: PTAI>3SD. In kind it is biochemical.
Conditions: not given
`C=CC[N@@+]12CC[C@]34c5ccccc5N5/C=C6\C7N(/C=C(\C53)[C@@H](C[C@@H]41)/C(=C/CO)C2)c1ccccc1[C@@]71CC[N@@+]2(CC=C)C/C(=C\CO)[C@@H]6C[C@@H]12.[Cl-].[Cl-]` (some centres unmarked) [Alcuronium chloride] came in with a ThS net change of 460.

`NCCCC(O)(P(=O)(O)O)P(=O)(O)O` [Alendronate sodium] registered a ThS net change of 381.

The compound `CC(=O)[C@H]1CC[C@H]2[C@@H]3CC[C@H]4C[C@H](O)CC[C@]4(C)[C@H]3C(=O)C[C@]12C` [Alfaxalone] gave a ThS net change of 420.

Consider `C=CC[C@]1(O)CC[C@H]2[C@@H]3CCC4=CC(=O)CCC4=C3C=C[C@@]21C` [Altrenogest], for which the ThS net change is given as 432.

On to `NCC[C@H](O)C(=O)N[C@@H]1C[C@H](N)[C@@H](O[C@H]2O[C@H](CN)[C@@H](O)[C@H](O)[C@H]2O)[C@H](O)[C@H]1O[C@H]1O[C@H](CO)[C@@H](O)[C@H](N)[C@H]1O.O.O` [Amikacin hydrate], for which the ThS net change stood at 418.

Take `NCCCCCC(=O)O` [Aminocaproic acid]: the ThS net change was found to be 456.

Consider `CCN(CC)Cc1cc(Nc2ccnc3cc(Cl)ccc23)ccc1O.Cl.Cl.O.O` [Amodiaquin dihydrochloride dihydrate], for which the ThS net change turned out to be 309.

On to `CCC(C)(C)c1ccc(CC(C)CN2C[C@@H](C)O[C@@H](C)C2)cc1` (some centres unmarked) [Amorolfine hydrochloride], for which the ThS net change is 413.

With `CCCc1ncc(C[n+]2ccccc2C)c(N)n1` [Amprolium hydrochloride], the ThS net change is listed as 424.

As for `C[C@]12CC[C@@H](O)C[C@@H]1CC[C@@H]1[C@@H]2CC[C@]2(C)C(=O)CC[C@@H]12` [Androsterone], the ThS net change is recorded as 449.

The same experiment, now with this note: 1280-compound library screen; ThS fluorescence net change over 16 h.
On to `COc1cc2nc(N(C)CCCNC(=O)C3CCCO3)nc(N)c2cc1OC` (centres unmarked) [Alfuzosin hydrochloride], for which the ThS net change was found to be 391.

For the compound `C=CCN1CCCC1CNC(=O)c1cc2nn[nH]c2cc1OC.Cl` (centres unmarked) [Alizapride HCl], the ThS net change turned out to be 383.

As to `NC(=O)NC1NC(=O)NC1=O` (centres unmarked) [Allantoin], the ThS net change was determined as 390.

The compound `Oc1ncnc2[nH]ncc12` [Allopurinol] had a ThS net change of 396.

Consider `C=CCSCC1Nc2cc(Cl)c(S(N)(=O)=O)cc2S(=O)(=O)N1` (centres unmarked) [Althiazide], for which the ThS net change is listed as 409.

`NCCCNCCSP(=O)(O)O` [Amifostine] registered a ThS net change of 392.

`N=C(N)NC(=O)c1nc(Cl)c(N)nc1N` [Amiloride hydrochloride dihydrate] showed a ThS net change of 401.

`Nc1c2ccccc2nc2ccccc12` [Aminacrine] had a ThS net change of 408.

Turning to `Cn1c(=O)c2[nH]cnc2n(C)c1=O` [Aminophylline], the ThS net change is reported as 403.

In turn, `CC1(C)S[C@@H]2[C@H](NC(=O)[C@H](N)c3ccc(O)cc3)C(=O)N2[C@H]1C(=O)O` [Amoxicillin] returned a ThS net change of 388.

`C[C@@H]1[C@H](O)[C@@H](C)/C=C/C=C/C=C/C=C/C=C/C=C/C=C/[C@H](O[C@@H]2O[C@H](C)[C@@H](O)[C@H](N)[C@@H]2O)C[C@@H]2O[C@](O)(C[C@@H](O)C[C@@H](O)[C@H](O)CC[C@@H](O)C[C@@H](O)CC(=O)O[C@H]1C)C[C@H](O)[C@H]2C(=O)O` [Amphotericin B] showed a ThS net change of 396.

With `Cc1c(N)c(=O)n(-c2ccccc2)n1C` [Ampyrone], the ThS net change amounted to 388.

`Nc1cc(-c2ccncc2)c[nH]c1=O` [Amrinone] gave a ThS net change of 410.

The compound `COc1ccc(C(=O)N2CCCC2=O)cc1` [Aniracetam] returned a ThS net change of 408.

As for `c1ccc(CN(CC2=NCCN2)c2ccccc2)cc1` [Antazoline hydrochloride], the ThS net change is reported as 399.

Regarding `OC[C@H]1O[C@@H](Oc2ccc(O)cc2)[C@H](O)[C@@H](O)[C@@H]1O` [Arbutin], the ThS net change is 409.

In turn, `CC1CNc2c(cccc2S(=O)(=O)N[C@@H](CCCNC(=N)N)C(=O)N2CC[C@@H](C)C[C@@H]2C(=O)O)C1` (some centres unmarked) [Argatroban] gave a ThS net change of 388.

As to `O=C1CCc2ccc(OCCCCN3CCN(c4cccc(Cl)c4Cl)CC3)cc2N1` [Aripiprazole], the ThS net change amounted to 386.

The same experiment, now with this note: 1280-compound library screen; […].
`CC(=O)OCC(=O)[C@H]1CC[C@H]2[C@@H]3CC[C@H]4C[C@H](O)CC[C@]4(C)[C@H]3C(=O)C[C@]12C` [Alfadolone acetate] came in with a ThS net change of 396.

As for `CCN(CC)C(C)C(=O)c1ccccc1` (centres unmarked) [Amfepramone hydrochloride], the ThS net change was found to be 388.

The experiment is the same for the next values; noted with them: flag: p-tau aggregation inhibitor, ThS net change more than 3 SD from mean.
With `O=C1CN2Cc3c(ccc(Cl)c3Cl)N=C2N1` [Anagrelide], the “PTAI>3SD” value is “*”.

As for `COc1ccc(-c2cc(=S)ss2)cc1` [Anethole-trithione], the “PTAI>3SD” value is reported as “*”.

Turning to `O=C1c2c(O)cccc2Cc2cccc(O)c21` [Anthralin], the “PTAI>3SD” value is listed as “*”.

Staying with this experiment, now noted: library screen, ThS fluorescence net change over 16 h with p-tau.
The compound `CCCCC(CC)CNC(=N)NC(=N)NCCCCCCNC(=N)NC(=N)NCC(CC)CCCC` (centres unmarked) [Alexidine dihydrochloride] returned a ThS net change of 327.

Turning to `C=C1/C(=C\C=C2/CCC[C@]3(C)[C@@H]([C@H](C)CCCC(C)C)CC[C@@H]23)C[C@@H](O)C[C@@H]1O` [Alfacalcidol], the ThS net change is on record as 284.

In the case of `O=C1CN2Cc3c(ccc(Cl)c3Cl)N=C2N1` [Anagrelide], the ThS net change stood at 22.

`COc1ccc(-c2cc(=S)ss2)cc1` [Anethole-trithione] displayed a ThS net change of 46.

Compound `O=C1c2c(O)cccc2Cc2cccc(O)c21` [Anthralin] returned a ThS net change of 85.

`CCCCCC[C@H]1C(=O)O[C@H](C)[C@H](NC(=O)c2cccc(NC=O)c2O)C(=O)O[C@@H](C)[C@@H]1OC(=O)CC(C)C` [Antimycin A] came in with a ThS net change of 211.

The same experiment, now with this note: p-tau aggregation modulator screen of 1280-compound library; ThS fluorescence net change.
On to `C=CCc1ccccc1OCC(O)CNC(C)C` (centres unmarked) [Alprenolol hydrochloride], for which the ThS net change is 376.

Compound `CCN(CCCc1ccccc1)CCCc1ccccc1.O=C(O)CC(O)(CC(=O)O)C(=O)O` [Alverine citrate salt] gave a ThS net change of 374.

In the case of `Cl.Nc1c(Br)cc(Br)cc1CN[C@H]1CC[C@H](O)CC1` [Ambroxol hydrochloride], the ThS net change is recorded as 364.

Consider `Cc1c(N(C)C)c(=O)n(-c2ccccc2)n1C` [Amidopyrine], for which the ThS net change is given as 368.

In turn, `Nc1ccc(C(=O)NCC(=O)O)cc1` [Aminohippuric acid] displayed a ThS net change of 344.

Turning to `c1ccc(CNc2ncnc3nc[nH]c23)cc1` [Aminopurine, 6-benzyl], the ThS net change came to 348.

Take `CN(C)CCCO[C@@H]1[C@H]2OC(C)(C)O[C@H]2O[C@@H]1[C@H](O)CO` [Amiprilose hydrochloride]: the ThS net change worked out at 367.

With `CN(C)CCC=C1c2ccccc2CCc2ccccc21.Cl` [Amitryptiline hydrochloride], the ThS net change came to 362.

The compound `CCOC(=O)C1=C(COCCN)NC(C)=C(C(=O)OC)C1c1ccccc1Cl` (centres unmarked) [Amlodipine] displayed a ThS net change of 351.

In turn, `CC1(C)S[C@@H]2[C@H](NC(=O)[C@H](N)c3ccccc3)C(=O)N2[C@H]1C(=O)O` [Ampicillin trihydrate] yielded a ThS net change of 355.

Consider `Cc1c(O)c(=O)n(-c2ccccc2)n1C` [Antipyrine, 4-hydroxy], for which the ThS net change was found to be 371.

With `C[C@@H]1CC[C@H]2[C@@H](C)C(=O)O[C@@H]3O[C@@]4(C)CC[C@@H]1[C@]32OO4` [Artemisinin], the ThS net change stood at 356.

The experiment is the same for the next values; noted with them: p-tau aggregation modulator screen of 1280-compound library; […].
Regarding `CCC(=O)OCC(=O)[C@@]1(OC(=O)CC)[C@H](C)C[C@H]2[C@H]3[C@H]([C@@H](O)C[C@@]21C)[C@@]1(C)C=CC(=O)C=C1C[C@H]3Cl` [Alclometasone dipropionate], the ThS net change amounted to 363.

On to `CC(=O)[C@@]12O[C@](C)(c3ccccc3)O[C@@H]1C[C@H]1[C@@H]3CCC4=CC(=O)CC[C@]4(C)[C@H]3CC[C@@]12C` [Algestone acetophenide], for which the ThS net change is recorded as 336.

In turn, `CC(C)c1ccc2oc3nc(N)c(C(=O)O)cc3c(=O)c2c1` [Amlexanox] registered a ThS net change of 376.

`CCC(C)(CN(C)C)OC(=O)c1ccccc1.Cl` (centres unmarked) [Amyleine hydrochloride] gave a ThS net change of 365.

Compound `Cc1cc(=O)n(-c2ccccc2)n1C` [Antipyrine] returned a ThS net change of 359.

Still in this experiment, the particulars now being: p-tau aggregation modulator screen of the compound library, ThS fluorescence net change.
Compound `Cc1[nH]cnc1CN1CCc2c(c3ccccc3n2C)C1=O` [Alosetron hydrochloride] came in with a ThS net change of 429.

For the compound `CCCCC[C@H](O)/C=C/[C@H]1[C@H](O)CC(=O)[C@@H]1CCCCCCC(=O)O` [Alprostadil], the ThS net change was determined as 445.

Take `CN(C)c1nc(N(C)C)nc(N(C)C)n1` [Altretamine]: the ThS net change turned out to be 414.

`COC(c1ccccc1)(c1ccccc1)[C@H](Oc1nc(C)cc(C)n1)C(=O)O` [Ambrisentan] had a ThS net change of 506.

`CC(=O)OCC(=O)[C@@]12OC3(CCCC3)O[C@@H]1C[C@H]1[C@@H]3CCC4=CC(=O)C=C[C@]4(C)[C@@]3(F)[C@@H](O)C[C@@]12C` [Amcinonide] returned a ThS net change of 477.

In turn, `CCCCc1oc2ccccc2c1C(=O)c1cc(I)c(OCCN(CC)CC)c(I)c1` [Amiodarone hydrochloride] came in with a ThS net change of 436.

`CCN1CCCC1CNC(=O)c1cc(S(=O)(=O)CC)c(N)cc1OC` (centres unmarked) [Amisulpride] showed a ThS net change of 428.

Regarding `Clc1ccc2c(c1)C(N1CCNCC1)=Nc1ccccc1O2` [Amoxapine], the ThS net change is listed as 416.

Regarding `CCOC(=O)OC(C)OC1=C(C(=O)Nc2ccccn2)N(C)S(=O)(=O)c2ccccc21` (centres unmarked) [Ampiroxicam], the ThS net change came to 493.

The compound `CC(C)(C#N)c1cc(Cn2cncn2)cc(C(C)(C)C#N)c1` [Anastrozole] registered a ThS net change of 484.

The compound `CN[C@@H]1[C@@H](O[C@H]2O[C@H](CO)[C@@H](N)[C@H](O)[C@H]2O)OC2C[C@@H](N)[C@@H](O[C@H]3[C@H](O)[C@@H](O)[C@H](N)C[C@@H]3N)OC2[C@@H]1O` (some centres unmarked) [Apramycin] came in with a ThS net change of 416.

Take `C[C@@H](O[C@H]1OCCN(Cc2n[nH]c(=O)[nH]2)[C@H]1c1ccc(F)cc1)c1cc(C(F)(F)F)cc(C(F)(F)F)c1` [Aprepitant]: the ThS net change was determined as 451.
